Test [1] has as its system T-47D ductal carcinoma cell line. Kind of test: MTT antiproliferative assay, T47D. Type of test: cell-based, human. The conditions noted are these: 72 h, 100–0.19 μM, read-out: IC50 (µM) ± SD T47D. As for the experimental part:
(§1) Breast cancer cell line MCF-7 (ATCC® HTB-22) and the drug-resistant subline of the human breast cancer MCF-7 (ECACC 86012803; KCR) were purchased from LGC Promochem (Teddington, UK). Both cell lines were cultured in Eagle’s Minimal Essential Medium (EMEM, containing 4.5 g/L glucose) supplemented with a non-essential amino acid mixture, a selection of vitamins, and 10% heat-inactivated fetal bovine serum. In every third passage, 0.56 µg/mL doxorubicin was added to the medium, in order to maintain the ABCB1 (P-glycoprotein) expression in KCR cells. A2780 human ovarian cancer cell line (ECACC, European Collection of Authentical Cell Culture, Sigma Cat.no. 93112519) was purchased from Merck KGaA (Darmstadt, Germany). The cisplatin-resistant human ovarian cancer cell line A2780cis (ECACC European Collection of Authentical Cell Culture, Sigma Cat.no. 93112517) was purchased from Merck KGaA (Darmstadt, Germany). The human ovarian cancer cell lines were cultured in RPMI 1640 medium supplemented with 10% heat-inactivated fetal bovine serum. […] HeLa (ATCC® CCL-2™) human cervix carcinoma cell line was purchased from LGC Promochem (Teddington, UK). The cells were cultured in Eagle’s Minimal Essential Medium (EMEM, containing 4.5 g/L glucose) supplemented with a non-essential amino acid mixture, a selection of vitamins, and 10% heat-inactivated fetal bovine serum. MRC-5 human embryonal lung fibroblast cell line (ATCC® CCL-171) was purchased from LGC Promochem, Teddington, UK. The cell line was cultured in Eagle’s Minimal Essential Medium (EMEM, containing 4.5 g/L glucose) supplemented with a non-essential amino acid mixture, a selection of vitamins, and 10% heat-inactivated fetal bovine serum. HTB-26 breast adenocarcinoma cell line was purchased from LGC Promochem, Teddington, UK. The cell line was cultured in RPMI 1640 medium supplemented with 10% heat-inactivated fetal bovine serum. T-47D (ATCC® HTB-133™) ductal carcinoma cell line was purchased from LGC Promochem, Teddington, UK. The cells were cultured in RPMI 1640 medium supplemented with 10% heat-inactivated fetal bovine serum, 2 mM L-glutamine, 1 mM Na-pyruvate, and 100 mM Hepes. All of the cells were incubated at 37 °C, in a 5% CO2 and 95% air atmosphere.
(§2) The antiproliferative effect of the compounds was determined on human breast (MCF-7, KCR, T47D, and HTB-26), cervical (HeLa), and ovarian (A2780 and A2780cis) cancer cells, and on MRC-5 (human embryonic lung fibroblast) cell lines. The adherent cells were cultured in 96-well flat-bottomed microtiter plates, using EMEM supplemented with 10% heat-inactivated fetal bovine serum or RPMI 1640 supplemented with 10% heat-inactivated fetal bovine serum, respectively. The density of the cells was adjusted to 6 × 10^3 cells in 100 μL per well, the cells were seeded for 24 h at 37 °C, with 5% CO2, and then the medium was removed from the plates, and fresh medium (100 μL per well) was added to the cells. The effects of increasing concentrations of compounds on cell proliferation were tested in 96-well flat-bottomed microtiter plates. The compounds were diluted in the appropriate medium; the dilutions of compounds were performed in separate plates and then added to the cells. The starting concentration of the compounds was 100 μM, and two-fold serial dilution was performed (concentration range: 100–0.19 μM). The culture plates were incubated at 37 °C for 72 h; at the end of the incubation period, 20 μL of MTT (thiazolyl blue tetrazolium bromide, Sigma) solution (from a stock solution of 5 mg/mL) was added to each well. After incubation at 37 °C for 4 h, 100 μL of sodium dodecyl sulfate (SDS) (Sigma) solution (10% in 0.01 M HCI) was added to each well, and the plates were further incubated, at 37 °C, overnight. Cell growth was determined by measuring the optical density (OD) at 540/630 nm, with a Multiscan EX ELISA reader (Thermo Labsystems, Cheshire, WA, USA). […]
In general terms: Formazan colour is commonly taken as a measure of viable cells.

The subject of test [2] is Breast cancer cell line MCF-7. Put plainly: MTT antiproliferative assay, MCF-7. The class given is cell-based, human. Conditions: for IC50: MTT assay, 72 h, 100–0.19 μM, read-out: IC50 (µM) ± SD MCF-7. How it is done: as §1, §2
For test [3], the system named is KCR, drug-resistant subline of the human breast cancer MCF-7. Put plainly: MTT antiproliferative assay, KCR. Conditions: 100–0.19 μM, read-out: IC50 (µM) ± SD KCR. The class given is cell-based. How it is done: as §1, §2
For test [4], the system named is HeLa human cervix carcinoma cell line. Put plainly: MTT antiproliferative assay, HeLa. Type of test: cell-based. Conditions: 72 h, 100–0.19 μM, read-out: IC50 (µM) ± SD HeLa. How it is done: as §1, §2
The test system of test [5] is cisplatin-resistant human ovarian cancer cell line A2780cis. Put plainly: MTT antiproliferative assay, A2780cis. Type of test: cell-based. Conditions: 72 h, 100–0.19 μM, read-out: IC50 (µM) ± SD A2780cis. How it is done: as §1, §2
Test [6] deals with HTB-26 breast adenocarcinoma cell line. Put plainly: MTT antiproliferative assay, HTB-26. The conditions noted are these: 100–0.19 μM, read-out: IC50 (µM) ± SD HTB-26. The class given is cell-based, human. As for the experimental part:
as §1, §2

Test [7] relates to A2780 human ovarian cancer cell line. Kind of test: MTT antiproliferative assay, A2780. Type of test: cell-based. Conditions: 100–0.19 μM, read-out: IC50 (µM) ± SD A2780. As for the experimental part:
as §1, §2

The structures appear in SMILES notation. Like-named read-outs stand apart in the source and are kept apart here.

As to `N.N.[Cl][Pt][Cl]` [Cisplatin, cisplatin, reference compound], the IC50 worked out at 5.9 ± 0.1 µM in test [1]; 1.4 ± 1.1 µM in test [2]; 6.7 ± 0.4 µM in test [3] (72 h); 2.3 ± 0.1 µM in test [4]; 7.3 ± 0.2 µM in test [5]; 20.1 ± 2.3 µM in test [6] (72 h). In test [7] (72 h), the IC50 was 3.6 ± 0.3 µM.

Turning to `C=CC1=C(C)C(=O)C=C2CCC3=C(C=CC(=O)C3(C)OC)C21OC` (stereo not shown) [Compound 1b], the IC50 in test [1] (Homo sapiens, T47D) was 36.5 ± 1 µM; in test [2] (Homo sapiens, MCF7, 72 h), 52.1 ± 4.8 µM; in test [3] (Homo sapiens, MCF7, 72 h), more than 100 µM; in test [4] (Homo sapiens, HeLa), more than 100 µM; in test [5] (Homo sapiens, A2780cis), 88.2 ± 3.1 µM; in test [6] (Homo sapiens, HTB26, 72 h), 74.3 ± 3.6 µM. The IC50 in test [7] (Homo sapiens, A2780, 72 h) worked out at 80.3 ± 3 µM.

For `C=CC1=C(C)C(=O)C=C2CCC3=C(C=CC(=O)C3(C)OCC)C21OCC` (stereo not shown) [Compound 2a], the IC50 in test [1] (Homo sapiens, T47D) was 56.3 ± 3.4 µM; in test [2] (Homo sapiens, MCF7, 72 h), 80.5 ± 3.5 µM; in test [3] (72 h), more than 100 µM; in test [4] (Homo sapiens, HeLa) it was 94.7 ± 3.4 µM; in test [5] (Homo sapiens, A2780cis), 62.9 ± 1.7 µM; in test [6] (72 h) it was 94.3 ± 2 µM. Moreover, in test [7] (Homo sapiens, A2780, 72 h), the IC50 turned out to be 66 ± 4.4 µM.

`C=CC1=C(C)C(=O)C=C2CCC3=C(C=CC(=O)C3(C)OCC)C21OCC` (stereo not shown) [Compound 2b]: the IC50 in test [1] was 30.3 ± 2.5 µM; in test [2] it was 41 ± 0.9 µM; in test [3] (72 h) it was 44.2 ± 2.6 µM; in test [4], 61.9 ± 0.3 µM; in test [5] it was 38 ± 4.6 µM; in test [6] (72 h), 45.8 ± 3.2 µM. Also, the IC50 in test [7] (72 h) is 39.4 ± 3.1 µM.

Turning to `C=CC1=CC(=O)C=C2CCC3=C(C=CC(=O)C3(C)OC)C12OC` (stereo not shown) [Compound 3], the IC50 in test [1] (Homo sapiens, T47D) was 7 ± 1 µM; in test [2] (Homo sapiens, MCF7, 72 h), 5.8 ± 0.2 µM; in test [3] (Homo sapiens, MCF7, 72 h), 18.9 ± 1.4 µM; in test [4] (Homo sapiens, HeLa), 12.9 ± 0.4 µM; in test [5] (Homo sapiens, A2780cis) it was 10.9 ± 2.2 µM; in test [6] (Homo sapiens, HTB26, 72 h), 10.9 ± 0.9 µM. Besides, the IC50 in test [7] (Homo sapiens, A2780, 72 h) is 8.6 ± 0.5 µM. In addition, in test [2] (ratio of IC50 MRC-5 / MCF-7), the “selectivity against MCF-7 cells over non-tumoral MRC-5 cells” value was “ca. 2.1 fold”.

In the case of `C=CC1=CC(=O)C=C2CCC3=C(C=CC(=O)C3(C)OCC)C12OCC` (stereo not shown) [Compound 4a], the IC50 in test [1] (Homo sapiens, T47D) came to 11.6 ± 0.3 µM; in test [2] (Homo sapiens, MCF7, 72 h) it was 11.7 ± 0.7 µM; in test [3] (Homo sapiens, MCF7, 72 h), 23.5 ± 0.8 µM; in test [4] (Homo sapiens, HeLa), 24.4 ± 0.8 µM; in test [5] (Homo sapiens, A2780cis), 22.5 ± 0.2 µM; in test [6] (Homo sapiens, HTB26, 72 h) it was 16.1 ± 0.2 µM. In addition, the IC50 in test [7] (Homo sapiens, A2780, 72 h) amounted to 25.2 ± 1.8 µM.

On to `C=CC1=CC(=O)C=C2CCC3=C(C=CC(=O)C3(C)OCC)C12OCC` (stereo not shown) [Compound 4b], for which the IC50 in test [1] came to 14.2 ± 0.6 µM; in test [2] it was 10.2 ± 0.1 µM; in test [3] (72 h), 29.4 ± 0.9 µM; in test [4], 35 ± 1.5 µM; in test [5] it was 22.1 ± 1.6 µM; in test [6] (72 h), 20.1 ± 1.1 µM. The IC50 in test [7] (72 h) stood at 22 ± 2 µM.

As to `C=Cc1cc(O)cc2c1-c1ccc(O)c(C)c1CC2` [effusol], the concentration for half-maximal inhibition (IC50) in test [1] (Homo sapiens, T47D) came to 24.6 ± 1.9 µM; in test [2] (Homo sapiens, MCF7, 72 h), 48.6 ± 3.4 µM; in test [3] (Homo sapiens, MCF7, 72 h) it was 39.3 ± 1.6 µM; in test [4] (Homo sapiens, HeLa) it was 2.3 ± 0.7 µM; in test [5] (Homo sapiens, A2780cis) it was 30.4 ± 0.4 µM; in test [6] (Homo sapiens, HTB26, 72 h), 57 ± 2.7 µM. Further, in test [7] (Homo sapiens, A2780, 72 h), the IC50 stood at 33.1 ± 3.1 µM.

For the compound `C=Cc1c(C)c(O)cc2c1-c1ccc(O)c(C)c1CC2` [juncusol], the IC50 was 25 ± 0.4 µM in test [1] (Homo sapiens, T47D); 37.1 ± 1.1 µM in test [2] (Homo sapiens, MCF7, 72 h); 35.8 ± 1.7 µM in test [3] (Homo sapiens, MCF7, 72 h); 0.5 µM in test [4] (Homo sapiens, HeLa); 37.1 ± 2.8 µM in test [5] (Homo sapiens, A2780cis); 41.7 ± 3.5 µM in test [6] (Homo sapiens, HTB26, 72 h). For the same compound, the IC50 in test [7] (Homo sapiens, A2780, 72 h) worked out at 23.8 ± 1.3 µM.

Usually IC50 stands for the point on the concentration scale where inhibition reaches its midpoint.

(Values after paper PMC7765930, “Antiproliferative Phenanthrenes from Juncus tenuis: Isolation and Diversity-Oriented Semisynthetic Modification” (Molecules, 2020).)
